Assay results: PubChem BioAssay (NCI)
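Cells were grown in 96-well plates and exposed to each compound for 48 hours at five concentrations; endpoints were interpolated linearly between bracketing concentrations, or set to the highest concentration if not reached. The concentration for full growth arrest is given as TGI.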

Experiments:
Assay in all cases: NCI-60 cell line screen, 48 h
786-0 renal = tested on: 786-0 renal
A498 renal = tested on: A498 renal
A549 NSCLC = tested on: A549 NSCLC
ACHN renal = tested on: ACHN renal
CAKI-1 renal = tested on: CAKI-1 renal
CCRF-CEM leukemia = tested on: CCRF-CEM leukemia
COLO 205 colon = tested on: COLO 205 colon
DLD-1 colon = tested on: DLD-1 colon
DMS 114 small cell lung = tested on: DMS 114 small cell lung
DMS 273 small cell lung = tested on: DMS 273 small cell lung
EKVX NSCLC = tested on: EKVX NSCLC
HCC-2998 colon = tested on: HCC-2998 colon
HCT-116 colon = tested on: HCT-116 colon
HCT-15 colon = tested on: HCT-15 colon
HL-60(TB) leukemia = tested on: HL-60(TB) leukemia
HOP-62 NSCLC = tested on: HOP-62 NSCLC
HOP-92 NSCLC = tested on: HOP-92 NSCLC
HT29 colon = tested on: HT29 colon
IGROV1 ovarian = tested on: IGROV1 ovarian
KM12 colon = tested on: KM12 colon
KM20L2 colon = tested on: KM20L2 colon
LOX IMVI melanoma = tested on: LOX IMVI melanoma
LXFL 529 NSCLC = tested on: LXFL 529 NSCLC
MOLT-4 leukemia = tested on: MOLT-4 leukemia
NCI-H226 lung = tested on: NCI-H226 lung
NCI-H460 lung = tested on: NCI-H460 lung
NCI-H522 lung = tested on: NCI-H522 lung
OVCAR-3 ovarian = tested on: OVCAR-3 ovarian
OVCAR-4 ovarian = tested on: OVCAR-4 ovarian
OVCAR-5 ovarian = tested on: OVCAR-5 ovarian
OVCAR-8 ovarian = tested on: OVCAR-8 ovarian
RPMI-8226 leukemia = tested on: RPMI-8226 leukemia
RXF 393 renal = tested on: RXF 393 renal
RXF-631 renal = tested on: RXF-631 renal
SF-295 CNS = tested on: SF-295 CNS
SF-539 CNS = tested on: SF-539 CNS
SK-MEL-5 melanoma = tested on: SK-MEL-5 melanoma
SK-OV-3 ovarian = tested on: SK-OV-3 ovarian
SN12C renal = tested on: SN12C renal
SNB-75 CNS = tested on: SNB-75 CNS
SNB-78 CNS = tested on: SNB-78 CNS
TK-10 renal = tested on: TK-10 renal
U251 CNS = tested on: U251 CNS
UACC-62 melanoma = tested on: UACC-62 melanoma
UO-31 renal = tested on: UO-31 renal
XF 498 CNS = tested on: XF 498 CNS
HOP-18 NSCLC = tested on: HOP-18 NSCLC
K-562 leukemia = tested on: K-562 leukemia
M19-MEL melanoma = tested on: M19-MEL melanoma
MALME-3M melanoma = tested on: MALME-3M melanoma
NCI-H23 lung = tested on: NCI-H23 lung
SF-268 CNS = tested on: SF-268 CNS
SK-MEL-2 melanoma = tested on: SK-MEL-2 melanoma
SK-MEL-28 melanoma = tested on: SK-MEL-28 melanoma
SNB-19 CNS = tested on: SNB-19 CNS
SR leukemia = tested on: SR leukemia
SW-620 colon = tested on: SW-620 colon
BT-549 breast = tested on: BT-549 breast
DU-145 prostate = tested on: DU-145 prostate
HS 578T breast = tested on: HS 578T breast
M14 melanoma = tested on: M14 melanoma
MCF7 breast = tested on: MCF7 breast
MDA-MB-231 breast = tested on: MDA-MB-231 breast
MDA-MB-435 = tested on: MDA-MB-435
MDA-N = tested on: MDA-N
NCI/ADR-RES ovarian = tested on: NCI/ADR-RES ovarian
PC-3 prostate = tested on: PC-3 prostate
T-47D breast = tested on: T-47D breast
UACC-257 melanoma = tested on: UACC-257 melanoma

CC(C)(CN1CCOCC1)C(=O)/C=C/c1ccc(/C=C/C(=O)C(C)(C)CN2CCOCC2)cc1
TGI (786-0 renal): 4.11 µM | TGI (A498 renal): 3.6 µM | TGI (A549 NSCLC): 7.42 µM | TGI (ACHN renal): 4.92 µM | TGI (CAKI-1 renal): 3.78 µM | TGI (CCRF-CEM leukemia): 4.77 µM | TGI (COLO 205 colon): 3.01 µM | TGI (DLD-1 colon): 1.19 µM | TGI (DMS 114 small cell lung): 2.16 µM | TGI (DMS 273 small cell lung): 1.87 µM | TGI (EKVX NSCLC): 4.12 µM | TGI (HCC-2998 colon): 3.26 µM | TGI (HCT-116 colon): 1.62 µM | TGI (HCT-15 colon): 4.03 µM | TGI (HL-60(TB) leukemia): 3.92 µM | TGI (HOP-62 NSCLC): 4.79 µM | TGI (HOP-92 NSCLC): 6.49 µM | TGI (HT29 colon): 1.88 µM | TGI (IGROV1 ovarian): 4.47 µM | TGI (KM12 colon): 2.92 µM | TGI (KM20L2 colon): 2.89 µM | TGI (LOX IMVI melanoma): 1.54 µM | TGI (LXFL 529 NSCLC): 2.59 µM | TGI (MOLT-4 leukemia): 0.694 µM | TGI (NCI-H226 lung): 5.22 µM | TGI (NCI-H460 lung): 19.4 µM | TGI (NCI-H522 lung): 0.928 µM | TGI (OVCAR-3 ovarian): 2.46 µM | TGI (OVCAR-4 ovarian): 2.4 µM | TGI (OVCAR-5 ovarian): 3.26 µM | TGI (OVCAR-8 ovarian): 7.52 µM | TGI (RPMI-8226 leukemia): 7.63 µM | TGI (RXF 393 renal): 3.45 µM | TGI (RXF-631 renal): 3.13 µM | TGI (SF-295 CNS): 4.63 µM | TGI (SF-539 CNS): 3.69 µM | TGI (SK-MEL-5 melanoma): 3.23 µM | TGI (SK-OV-3 ovarian): 39.8 µM | TGI (SN12C renal): 3.57 µM | TGI (SNB-75 CNS): 4.44 µM | TGI (SNB-78 CNS): 3.07 µM | TGI (TK-10 renal): 3.62 µM | TGI (U251 CNS): 2.63 µM | TGI (UACC-62 melanoma): 2.98 µM | TGI (UO-31 renal): 3.15 µM | TGI (XF 498 CNS): 2.84 µM

O=c1nc(NC(c2ccccc2)(c2ccccc2)c2ccccc2)ccn1CCCl
TGI (786-0 renal): 32 µM | TGI (A498 renal): > 100 µM | TGI (A549 NSCLC): > 100 µM | TGI (ACHN renal): 99 µM | TGI (COLO 205 colon): 64.7 µM | TGI (DLD-1 colon): > 100 µM | TGI (DMS 114 small cell lung): 37.9 µM | TGI (EKVX NSCLC): 61 µM | TGI (HCC-2998 colon): 28 µM | TGI (HCT-116 colon): 37.1 µM | TGI (HCT-15 colon): > 100 µM | TGI (HL-60(TB) leukemia): 54.9 µM | TGI (HOP-18 NSCLC): 72.1 µM | TGI (HOP-62 NSCLC): 40.9 µM | TGI (HOP-92 NSCLC): 27.6 µM | TGI (HT29 colon): 35 µM | TGI (IGROV1 ovarian): 48.1 µM | TGI (K-562 leukemia): 63.3 µM | TGI (KM12 colon): 31.2 µM | TGI (KM20L2 colon): 33 µM | TGI (LOX IMVI melanoma): 31.8 µM | TGI (LXFL 529 NSCLC): 26.4 µM | TGI (M19-MEL melanoma): 40.5 µM | TGI (MALME-3M melanoma): 29.2 µM | TGI (MOLT-4 leukemia): 42.3 µM | TGI (NCI-H226 lung): 42.8 µM | TGI (NCI-H23 lung): 56 µM | TGI (NCI-H460 lung): 36.4 µM | TGI (NCI-H522 lung): 41.4 µM | TGI (OVCAR-3 ovarian): 27.6 µM | TGI (OVCAR-4 ovarian): 53.1 µM | TGI (OVCAR-5 ovarian): 82.4 µM | TGI (OVCAR-8 ovarian): 29.7 µM | TGI (RPMI-8226 leukemia): 55.7 µM | TGI (RXF 393 renal): 30.8 µM | TGI (RXF-631 renal): 97.4 µM | TGI (SF-268 CNS): 34.1 µM | TGI (SF-295 CNS): 42.9 µM | TGI (SF-539 CNS): 31.7 µM | TGI (SK-MEL-2 melanoma): 29.9 µM | TGI (SK-MEL-28 melanoma): 28.6 µM | TGI (SN12C renal): 33 µM | TGI (SNB-19 CNS): 28.9 µM | TGI (SNB-75 CNS): 41.8 µM | TGI (SNB-78 CNS): 86.7 µM | TGI (SR leukemia): 49.5 µM | TGI (SW-620 colon): 48.6 µM | TGI (TK-10 renal): 56.2 µM | TGI (U251 CNS): 28.7 µM | TGI (UO-31 renal): > 100 µM | TGI (XF 498 CNS): 27.1 µM

Cc1cc2c(cc1C)[n+](=O)c(C(=O)/C=C/c1ccc3c(c1)OCO3)c(C)n2[O-]
TGI (786-0 renal): > 100 µM | TGI (A498 renal): > 100 µM | TGI (A549 NSCLC): > 100 µM | TGI (ACHN renal): > 75.8 µM | TGI (BT-549 breast): > 100 µM | TGI (CAKI-1 renal): > 89 µM | TGI (CCRF-CEM leukemia): > 100 µM | TGI (COLO 205 colon): > 100 µM | TGI (DLD-1 colon): > 100 µM | TGI (DMS 114 small cell lung): > 84.5 µM | TGI (DMS 273 small cell lung): > 100 µM | TGI (DU-145 prostate): > 100 µM | TGI (EKVX NSCLC): > 100 µM | TGI (HCC-2998 colon): > 100 µM | TGI (HCT-116 colon): > 100 µM | TGI (HCT-15 colon): > 100 µM | TGI (HL-60(TB) leukemia): > 100 µM | TGI (HOP-18 NSCLC): > 100 µM | TGI (HOP-62 NSCLC): 59.1 µM | TGI (HOP-92 NSCLC): 69.1 µM | TGI (HS 578T breast): 64 µM | TGI (HT29 colon): > 100 µM | TGI (IGROV1 ovarian): > 81.5 µM | TGI (K-562 leukemia): > 100 µM | TGI (KM12 colon): > 100 µM | TGI (KM20L2 colon): > 100 µM | TGI (LOX IMVI melanoma): > 85.2 µM | TGI (M14 melanoma): > 100 µM | TGI (M19-MEL melanoma): > 100 µM | TGI (MALME-3M melanoma): > 100 µM | TGI (MCF7 breast): > 100 µM | TGI (MDA-MB-231 breast): > 100 µM | TGI (MDA-MB-435): > 100 µM | TGI (MDA-N): > 100 µM | TGI (MOLT-4 leukemia): > 100 µM | TGI (NCI-H226 lung): > 100 µM | TGI (NCI-H23 lung): > 89.1 µM | TGI (NCI-H460 lung): > 100 µM | TGI (NCI-H522 lung): 79.4 µM | TGI (NCI/ADR-RES ovarian): > 100 µM | TGI (OVCAR-3 ovarian): > 100 µM | TGI (OVCAR-4 ovarian): > 100 µM | TGI (OVCAR-5 ovarian): > 100 µM | TGI (OVCAR-8 ovarian): > 100 µM | TGI (PC-3 prostate): > 100 µM | TGI (RPMI-8226 leukemia): > 100 µM | TGI (RXF 393 renal): 66.6 µM | TGI (RXF-631 renal): > 91.3 µM | TGI (SF-268 CNS): > 76.9 µM | TGI (SF-295 CNS): 50 µM | TGI (SF-539 CNS): > 100 µM | TGI (SK-MEL-2 melanoma): 88.6 µM | TGI (SK-MEL-28 melanoma): > 100 µM | TGI (SK-MEL-5 melanoma): > 100 µM | TGI (SK-OV-3 ovarian): 52.2 µM | TGI (SN12C renal): > 100 µM | TGI (SNB-19 CNS): 79.3 µM | TGI (SNB-75 CNS): 39.9 µM | TGI (SNB-78 CNS): > 100 µM | TGI (SR leukemia): > 100 µM | TGI (SW-620 colon): > 100 µM | TGI (T-47D breast): > 100 µM | TGI (TK-10 renal): 53.3 µM | TGI (U251 CNS): 62.7 µM | TGI (UACC-257 melanoma): > 100 µM | TGI (UACC-62 melanoma): 59.5 µM | TGI (UO-31 renal): > 100 µM | TGI (XF 498 CNS): 54.9 µM
